These results are taken from paper PMC11912748, “Image-Guided Monitoring of Mitochondria and Blood–Brain Barrier Dysfunction in Amyotrophic Lateral Sclerosis Mice” (Biomaterials Research, 2025).

In data set [1] the test system is SH-SY5Y cells. Put plainly: Subcellular localization (colocalization with LysoTracker/MitoTracker). The data set is classed as cell-based, human. To be noted: 1 μM, 30 min, 37 °C. As for the experimental part:
Human neuroblastoma SH-SY5Y cells [American Type Culture Collection (ATCC), Manassas, VA, USA] were cultured in a 1:1 mixture of Eagle’s minimum essential medium (EMEM; no. 30-2003, ATCC, Manassas, VA, USA) and F12K with 10% FBS and 1% penicillin-streptomycin solution. Cells were grown in a humidified atmosphere of 5% CO2 at 37 °C. The medium was replaced every 3 to 4 d, and cells were subcultured using trypsin–EDTA when 70% to 80% confluent. All media and supplements were purchased from Gibco (Gaithersburg, MD, USA). To optimize the imaging condition in this study, cells were incubated at 37 °C for 10 to 30 min in the presence of 0.1 to 1 μM of ALS04 and ALS05. After washing, the cells were imaged using BioTek Cytation 5. Fluorescence intensity was quantified using the threshold analysis method implemented in the ImageJ software. […] The cells were then washed and stained with NucBlue (2 drops/ml, Live ReadyProbes Reagent, Hoechst 33342, Invitrogen no. R37605), Lysotracker Yellow (5 μM, Invitrogen, no. L12491), and MitoTracker Deep Red (0.5 μM) (Invitrogen, no. M22426) to stain lysosome and mitochondria for 30 min as per the manufacturer’s instruction. […] Mander’s colocalization coefficients were then determined using the Costes method to choose threshold values on ImageJ [24].

For data set [2], the system named is SH-SY5Y cells. Put plainly: In vitro model of mitochondrial dysfunction (MPP+). The data set is classed as cell-based, human. To be noted: MPP+ 30, 125, 500 μM for 24 h, then 1 μM for 30 min. The protocol:
SH-SY5Y cells were seeded into 6-well plates (Corning Costar, no. 3516) at a density of 12,000 cells/well overnight. Cells were maintained at 37 °C in a humidified atmosphere of 5% CO2. To model mitochondrial dysfunction, undifferentiated and differentiated SH-SY5Y cells were incubated with 30, 125, and 500 μM 1-methyl-4-phenylpyridinium (MPP^+; Neurotoxin agent, Cayman, no. 16958) in the medium for 24 h. The control groups for undifferentiated and differentiated SH-SY5Y cells were treated with the same medium without MPP^+. The cells were then washed with 10% FBS/HBSS. After washing, cells were incubated with 1 μM of ALS04, MitoTracker Deep Red, and NucBlue for 30 min. The cells were imaged using BioTek Cytation 5. The fluorescent intensity of each cell was measured using ImageJ.

A further data set relates to CD-1 mice. Kind of data set: Biodistribution and clearance by NIR imaging. The data set is classed as in vivo. Particulars: 4 h post-injection. As for the experimental part:
(§1) Six-week-old CD-1 mice were used to quantify the blood clearance rate and urinary excretion. Mice were injected with 25 nmol of ALS04 or ALS05 in saline containing 2.5% PEG400 (polyethylene glycol, molecular weight 400) and 5% BSA via intravenous injection under isoflurane anesthesia, and blood was collected in heparinized capillary tubes (Fisher Scientific, Pittsburgh, PA) by tail nick before injection and at 1, 3, 5, 10, 30, 60, 120, 180, and 240 min post-injection and then stored in an icebox to prevent clotting. The supernatants of collected blood were filled into capillary microtubes (Fisher Scientific) after centrifugation. Mice were euthanized with CO2 inhalation to image organs and collect urine from the bladder 4 h post-injection. Collected urine samples were also placed into capillary microtubes. The fluorescence intensities of the microtubes were measured by NIR imaging along with a set of standard ALS04 or ALS05 samples of known concentrations to analyze the pharmacokinetics. Pharmacokinetic analysis was performed using the 2-compartment model (or biexponential decay) to estimate distribution (t1/2α) and elimination (t1/2β) blood half-life, the volume of distribution, and clearance. Results were presented as a biexponential decay curve.
For all real-time intraoperative imaging, a standardized imaging protocol was employed throughout the procedure using our custom-made imaging system, as previously described. Briefly, imaging utilized a 760-nm excitation source at a fluence rate of 4 mW/cm^2 combined with white light illumination (400 to 650 nm) at 40,000 lux. Camera exposure time was adjusted as needed to accurately capture the biodistribution of the fluorophores. Mice were maintained under general anesthesia using isoflurane or a combination of ketamine and xylazine (Webster Veterinary, Fort Devens, MA), and a midline incision was performed to expose the abdominal cavity. For imaging, a general field of view (FOV) of 5 cm in diameter was used to include the pancreas head, duodenum, liver, and kidneys, while a close-up FOV of 3.3 cm in diameter focused specifically on the pancreas head and duodenum. Following imaging, the mice were euthanized using CO₂ inhalation. Major organs, including the heart, lung, liver, pancreas, spleen, kidney, duodenum, intestine, and muscle, were excised and imaged ex vivo to evaluate fluorophore biodistribution and excretion pathways. The signal-to-background ratio (SBR) was calculated as follows: SBR=IROI/IAuto (2) where IROI denotes the average intensity of an ROI and IAuto represents the intensity of the muscle.

Data set [3] in a line: Pharmacokinetics after single intravenous injection (2-compartment model). Particulars: 25 nmol i.v. in 2.5% PEG400 and 5% BSA in saline; for half-life: 25 nmol. The class given is in vivo, CD-1 mice. As for the experimental part:
as §1

Data set [4] deals with SH-SY5Y cells. Put plainly: Cellular uptake inhibition (BSP pretreatment or 4 °C). The class given is cell-based, human. As for the experimental part: SH-SY5Y cells were seeded on a 24-well plate (Corning Costar, no. 3524) and incubated at 37 °C for 48 h. To determine the role of membrane transporter in ALS04 retention, SH-SY5Y cells were pretreated with 250 μM sulfobromophthalein disodium (BSP; MedChemExpress, HY-D0217) at 37 °C for 20 min. Cells were then incubated with 1 μM of ALS04 and NucBlue (Invitrogen, Hoechst 33342, no. R37605) for 20 min at 37 °C. To evaluate the contribution of diffusion across the plasma membrane, cells were also incubated at 4 °C for 30 min, followed by incubation with 1 μM ALS04 at 4 °C for 20 min. After washing, the cells were imaged using BioTek Cytation 5. The fluorescence intensity of each cell was determined using ImageJ.

Read-outs that look alike come from different tables or passages of the source.

For the compound `CN1/C(=C/C2=CC3=C/C(=C/c4sc5ccccc5[n+]4C)CCC3CC2)Sc2ccccc21` (stereo not shown) [ALS04], the “Colocalization with lysosomes (colocalizing pixels)” value in the data set with SH-SY5Y cells [1] (LysoTracker) is on record as 8.5%. For the same compound, the “Colocalization with mitochondria (colocalizing pixels)” value with SH-SY5Y cells [1] (MitoTracker) is recorded as 71%. Besides, the “Colocalization with mitochondria after MPP+ treatment” value with SH-SY5Y cells [2] is reported as “dose-dependent reduction”. For the same compound, in the data set with CD-1 mice (25 nmol), the “SBR in duodenum or intestine and kidneys” value is on record as “relatively high SBR”; the “Signal in the bladder” value is recorded as “Little signal”. The Clearance route entry in the data set on CD-1 mice (25 nmol, intravital NIR imaging) is “both renal and hepatic clearance”. The “Signals in brown adipose tissue (BAT) and pituitary gland (PG) compared to ALS05” value in the data set with CD-1 mice (25 nmol, ****P ≤ 0.0001 BAT, *P = 0.0324 PG) is given as “highly selective accumulated signals”. Besides, in the data set with CD-1 mice (resected organs), the “Ex vivo signal in the gastrointestinal tract” value is “high signal” and the “Ex vivo signal in the kidney compared to ALS05” value was “noticeably higher signal”. Besides, in data set [3], the area under the curve (AUC) (in general, concentration integrated over time) worked out at 775.6 nmol·min/mL. Moreover, the half-life in data set [3] (CD-1, mouse, plasma, iv, read-out: t1/2α (distribution blood half-life)) was determined as 1.82 min. In addition, the half-life in data set [3] (CD-1, mouse, plasma, iv, read-out: t1/2β (elimination blood half-life)) turned out to be 79.9 min. Also, in data set [3] (CD-1, mouse, plasma, iv, read-out: Cl (clearance)), the clearance (in general, the rate of elimination divided by the concentration) came out at 0.067 mL/min. The Vd (commonly the apparent volume that relates the amount in the body to the concentration in plasma or blood) in data set [3] (CD-1, mouse, plasma, iv, read-out: Vd (volume of distribution)) worked out at 0.00296 L. Besides, in the data set on SH-SY5Y cells [4] (250 μM BSP pretreatment 20 min, then 1 μM for 20 min, ****P ≤ 0.0001), the “Fluorescence signal (cellular uptake) after OATP inhibitor BSP” value is on record as “significant reduction”. Besides, in the data set on SH-SY5Y cells [4] (cells at 4 °C 30 min, then 1 μM at 4 °C for 20 min), the “Cellular uptake at 4 °C” value was “significantly reduced”.
